± gives the standard deviation of the averaged measurements.
What was measured:
Assay in all cases: relative viability vs DMSO control (72 h) (fraction); higher = more viable cells
A204 = system: A204
How it was run: (§1)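 Sarcoma cell lines were grown in 384-well plates seeded toward 80–90% confluence and exposed 24 h later to serially diluted compound. After 72 h at 37 °C and 5% CO2, with 0.1% DMSO vehicle and a 5 µM positive control on the plates, ATPLite was read. Relative viability, given as percent growth averaged over up to triplicate wells, was rescaled so that 1 is full and 0 is none.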

G401 = system: G401
How it was run: as §1

HS729 = system: HS729
How it was run: as §1

KHOS-240S = system: KHOS-240S
How it was run: as §1

MES-SA = system: MES-SA
How it was run: as §1

SK-ES-1 = system: SK-ES-1
How it was run: as §1

SK-LMS-1 = system: SK-LMS-1
How it was run: as §1

SW1353 = system: SW1353
How it was run: as §1

SW684 = system: SW684
How it was run: as §1

SW872 = system: SW872
How it was run: as §1

SW982 = system: SW982
How it was run: as §1

SYO-1 = system: SYO-1
How it was run: as §1

N#CCC1(n2cc(-c3ncnc4[nH]ccc34)cn2)CN(C2CCN(C(=O)c3ccnc(C(F)(F)F)c3F)CC2)C1 [Itacitinib]
Conditions | relative viability
A204, 0.00017 µM | 1.02 ± 0.018
A204, 0.00051 µM | 1.02 ± 0.012
A204, 0.00152 µM | 1.03 ± 0.025
A204, 0.00457 µM | 1.02 ± 0.046
A204, 0.01372 µM | 1.04 ± 0.036
A204, 0.04115 µM | 1.03 ± 0.014
A204, 0.1235 µM | 1.01 ± 0.018
A204, 0.3704 µM | 0.959 ± 0.013
A204, 1.111 µM | 0.948 ± 0.066
A204, 3.333 µM | 0.936 ± 0.034
A204, 10 µM | 0.836 ± 0.036
G401, 0.00017 µM | 0.99 ± 0.013
G401, 0.00051 µM | 0.967 ± 0.076
G401, 0.00152 µM | 0.921 ± 0.012
G401, 0.00457 µM | 0.912 ± 0.039
G401, 0.01372 µM | 0.962 ± 0.059
G401, 0.04115 µM | 0.929 ± 0.023
G401, 0.1235 µM | 0.902 ± 0.071
G401, 0.3704 µM | 0.953 ± 0.079
G401, 1.111 µM | 0.931 ± 0.043
G401, 3.333 µM | 0.913 ± 0.046
G401, 10 µM | 0.862 ± 0.084
HS729, 0.00017 µM | 1 ± 0.065
HS729, 0.00051 µM | 0.966 ± 0.12
HS729, 0.00152 µM | 0.937 ± 0.082
HS729, 0.00457 µM | 0.889 ± 0.1
HS729, 0.01372 µM | 0.833 ± 0.11
HS729, 0.04115 µM | 0.885 ± 0.042
HS729, 0.1235 µM | 0.792 ± 0.049
HS729, 0.3704 µM | 0.822 ± 0.013
HS729, 1.111 µM | 0.806 ± 0.035
HS729, 3.333 µM | 0.758 ± 0.051
HS729, 10 µM | 0.751 ± 0.044
KHOS-240S, 0.00017 µM | 1.05 ± 0.061
KHOS-240S, 0.00051 µM | 1.04 ± 0.046
KHOS-240S, 0.00152 µM | 1.04 ± 0.024
KHOS-240S, 0.00457 µM | 1.06 ± 0.069
KHOS-240S, 0.01372 µM | 1.02 ± 0.027
KHOS-240S, 0.04115 µM | 1.01 ± 0.02
KHOS-240S, 0.1235 µM | 0.984 ± 0.01
KHOS-240S, 0.3704 µM | 0.999 ± 0.016
KHOS-240S, 1.111 µM | 0.97 ± 0.015
KHOS-240S, 3.333 µM | 0.95 ± 0.031
KHOS-240S, 10 µM | 0.923 ± 0.027
MES-SA, 0.00017 µM | 0.921 ± 0.034
MES-SA, 0.00051 µM | 0.934 ± 0.013
MES-SA, 0.00152 µM | 0.919 ± 0.036
MES-SA, 0.00457 µM | 0.908 ± 0.0097
MES-SA, 0.01372 µM | 0.922 ± 0.026
MES-SA, 0.04115 µM | 0.894 ± 0.028
MES-SA, 0.1235 µM | 0.909 ± 0.052
MES-SA, 0.3704 µM | 0.886 ± 0.029
MES-SA, 1.111 µM | 0.898 ± 0.02
MES-SA, 3.333 µM | 0.864 ± 0.027
MES-SA, 10 µM | 0.827 ± 0.034
SK-ES-1, 0.00017 µM | 1.04 ± 0.028
SK-ES-1, 0.00051 µM | 0.996 ± 0.068
SK-ES-1, 0.00152 µM | 0.977 ± 0.026
SK-ES-1, 0.00457 µM | 1.05 ± 0.033
SK-ES-1, 0.01372 µM | 0.979 ± 0.031
SK-ES-1, 0.04115 µM | 0.976 ± 0.049
SK-ES-1, 0.1235 µM | 1.01 ± 0.06
SK-ES-1, 0.3704 µM | 0.964 ± 0.035
SK-ES-1, 1.111 µM | 0.972 ± 0.043
SK-ES-1, 3.333 µM | 0.884 ± 0.039
SK-ES-1, 10 µM | 0.855 ± 0.039
SK-LMS-1, 0.00017 µM | 1.03 ± 0.037
SK-LMS-1, 0.00051 µM | 1.02 ± 0.071
SK-LMS-1, 0.00152 µM | 0.994 ± 0.042
SK-LMS-1, 0.00457 µM | 0.976 ± 0.048
SK-LMS-1, 0.01372 µM | 0.987 ± 0.06
SK-LMS-1, 0.04115 µM | 0.997 ± 0.032
SK-LMS-1, 0.1235 µM | 0.958 ± 0.033
SK-LMS-1, 0.3704 µM | 0.954 ± 0.013
SK-LMS-1, 1.111 µM | 0.969 ± 0.048
SK-LMS-1, 3.333 µM | 0.913 ± 0.017
SK-LMS-1, 10 µM | 0.883 ± 0.047
SW684, 0.00017 µM | 1.1 ± 0.033
SW684, 0.00051 µM | 1.09 ± 0.025
SW684, 0.00152 µM | 1.09 ± 0.056
SW684, 0.00457 µM | 1.1 ± 0.035
SW684, 0.01372 µM | 1.07 ± 0.0057
SW684, 0.04115 µM | 1.07 ± 0.051
SW684, 0.1235 µM | 1.06 ± 0.061
SW684, 0.3704 µM | 1.08 ± 0.039
SW684, 1.111 µM | 1.1 ± 0.025
SW684, 3.333 µM | 1.06 ± 0.024
SW684, 10 µM | 0.977 ± 0.038
SW872, 0.00017 µM | 1.012 ± 0.0074
SW872, 0.00051 µM | 1.03 ± 0.017
SW872, 0.00152 µM | 0.975 ± 0.057
SW872, 0.00457 µM | 0.972 ± 0.043
SW872, 0.01372 µM | 0.971 ± 0.073
SW872, 0.04115 µM | 0.94 ± 0.041
SW872, 0.1235 µM | 0.891 ± 0.015
SW872, 0.3704 µM | 0.911 ± 0.041
SW872, 1.111 µM | 0.901 ± 0.015
SW872, 3.333 µM | 0.902 ± 0.07
SW872, 10 µM | 0.859 ± 0.019
SW982, 0.00017 µM | 0.979 ± 0.048
SW982, 0.00051 µM | 0.996 ± 0.037
SW982, 0.00152 µM | 1.01 ± 0.02
SW982, 0.00457 µM | 1 ± 0.051
SW982, 0.01372 µM | 1.02 ± 0.012
SW982, 0.04115 µM | 0.974 ± 0.0069
SW982, 0.1235 µM | 0.976 ± 0.025
SW982, 0.3704 µM | 0.956 ± 0.034
SW982, 1.111 µM | 0.983 ± 0.028
SW982, 3.333 µM | 0.93 ± 0.056
SW982, 10 µM | 0.928 ± 0.06
SW1353, 0.00017 µM | 0.987 ± 0.049
SW1353, 0.00051 µM | 1 ± 0.041
SW1353, 0.00152 µM | 0.982 ± 0.031
SW1353, 0.00457 µM | 0.937 ± 0.056
SW1353, 0.01372 µM | 0.96 ± 0.027
SW1353, 0.04115 µM | 0.939 ± 0.038
SW1353, 0.1235 µM | 0.955 ± 0.062
SW1353, 0.3704 µM | 0.937 ± 0.053
SW1353, 1.111 µM | 0.933 ± 0.059
SW1353, 3.333 µM | 0.929 ± 0.025
SW1353, 10 µM | 0.87 ± 0.03
SYO-1, 0.00017 µM | 0.969 ± 0.012
SYO-1, 0.00051 µM | 0.921 ± 0.023
SYO-1, 0.00152 µM | 0.927 ± 0.015
SYO-1, 0.00457 µM | 0.91 ± 0.036
SYO-1, 0.01372 µM | 0.859 ± 0.031
SYO-1, 0.04115 µM | 0.825 ± 0.022
SYO-1, 0.1235 µM | 0.802 ± 0.015
SYO-1, 0.3704 µM | 0.792 ± 0.018
SYO-1, 1.111 µM | 0.752 ± 0.031
SYO-1, 3.333 µM | 0.72 ± 0.034
SYO-1, 10 µM | 0.698 ± 0.041

— the supplement of paper PMC10883282
